Assay results: patent US9387186B2, “Thiourea derivatives” (priority 2014, dated 2016)
Like-named read-outs stand apart in the source and are kept apart here.

Columns and labels:
Type in all cases: cell-based, Staphylococcus aureus
[1] = system: EMRSA-16; assay: Reversal of multi-drug resistance (MIC / FIC, Alamar blue); details: for MIC of antibiotic in combination: antibiotic in combination of compounds I and II
Description: (§1) Fixed concentration of compounds I and II and increasing concentration of antibiotics (drugs) were made in 96-well plates. 5×10^5 multidrug resistant S. aureus cells were added in each well and incubated for 20-24 hours. No test compounds and antibiotics were present in control wells Inhibition and growth were noted both visually and by using the dye Alamar blue. FIC of Antibiotic a (FICa)=MIC of Antibiotic a in combination/MIC of Antibiotic a alone FIC of Compound b (FICb)=MIC of Compound b in combination/MIC of Compound b alone
(§2) The sum of Fractional Inhibitory Concentration (FICs) index of (FICa)+(FICb)=(FICs). Fractional inhibitory concentrations were calculated by the above cited formula. (The FIC values of compounds I and II are available (FIGS. 4A and 4B). Protocol of Chung et al. (2011), with slight modifications, was followed for above discussed reversal resistance assay.

[2] = system: EMRSA-17; assay: as above
Description: as §1, §2

[3] = system: Clinical Isolates; assay: High throughput screening assay (MABA) against MDR S. aureus; details: for activity in MABA (in words): summary of Table 1
Description: (§3) In growth medium (Muller Hinton broth), the pure isolated colonies were inoculated and incubated at 37° C. for 20-24 hours. After 20-24 hours, the turbidity was checked and adjusted to 0.5 McFarland standards.
(§4) For this assay, the stock solutions of 1 mg/mL concentration of compounds (I and II) were made by using DMSO. 96-Wells sterile, flat bottom micro titer plates were used with proper labeling, 20 μg/mL of both compounds were added in first wells and made two fold serial dilutions by using sterile broth. The cells suspensions (conc. 5×10^5) were then added in each wells, finally the volume was made up with broth up to 200 μL in each well. The plate was sealed and incubated at 37° C. for 20-24 hours. Experiments were carried out in triplicate manner. After incubation of 20-24 hours, Alamar Blue Dye was added (10%) to the culture volume and kept the plates on shaking incubator at 37° C. for 3 to 4 hours. Change in color was then assessed visually and qualitatively. Quantitative analysis was recorded by taking absorbance at 570 and 600 nm by a spectrophotometer.
(§5) The above mentioned protocol was followed by the method reported by Sarkar et al., (2007) with slight modifications.
(§6) Percentage reduction and inhibition of Alamar blue dye was calculated by using the following formulas:
(§7) [formula] Where, • εox=molar extinction coefficient of Alamar blue oxidized form (blue) • εred=molar extinction coefficient of Alamar blue reduced form (pink) • A=absorbance of test wells • A′=absorbance of negative control well • λ1=570 nm • λ2=600 nm
(§8) Here control wells contain only media plus Alamar Blue, while the test wells contain both Alamar Blue with the test compounds.
(§9) [formula] Where, • εox=molar extinction coefficient of Alamar blue oxidized form (blue) • A=absorbance of test wells • A°=absorbance of positive growth control well • λ1=570 nm • λ2=600 nm
(§10) Here control wells contain cells+media+Alamar Blue, while the test wells contain both Alamar Blue with the test compounds+cells (The percent inhibitions are available in Table 1).

[4] = system: EMRSA-16; assay: as above; details: for activity in MABA (in words): summary of Table 1
Description: as §3, §4, §5, §6, §7, §8, §9, §10

[5] = system: EMRSA-17; assay: as above; details: for activity in MABA (in words): summary of Table 1
Description: as §3, §4, §5, §6, §7, §8, §9, §10

[6] = system: MRSA 252; assay: as above; details: for activity in MABA (in words): summary of Table 1
Description: as §3, §4, §5, §6, §7, §8, §9, §10

[7] = system: EMRSA-16 and -17; assay: Membrane potential and integrity, DiBAC4(3) flow cytometry; details: 20 μg/mL, 20-24 h; DiBAC4(3) fluorescence FL1
Description: 20 μg/mL of compounds I and II were tested against 5×10^5 multidrug resistant S. aureus cells and incubated for 20-24 hours, while cells without compounds were taken as a control. Stock solution (1 mg/mL) for the membrane potential probe DiBAC4(3) was made in absolute ethanol and stored at −20° C. 1 mL of exponentially growing S. aureus were taken from broth cultures and centrifuged at 11,000 rpm for 2 mins Supernatant was discarded and cells pallets were dissolved in 4 mL of filtered phosphate-buffered saline (PBS). Final 10 μg/mL conc. of fluorogenic substrates DiBAC4 were adjusted in 4 mL volume. The stained cell suspension was incubated at 37° C. for 30 min. Before flow cytometric analysis, cells were washed in PBS buffer by centrifugation. The above mentioned protocol was adapted from the procedures of Jepras et al. (1997) with slight modifications. Assays were performed by using Becton Dickinson FACSCaliber™ flow cytometer (USA). A total of 50,000 cells were counted by using Cell Quest software (BD) for data acquisition and analysis. DiBAC4(3) was detected as green fluorescence in the channel FL1 (Veal et al., 2000).

[8] = system: EMRSA-16 and -17; assay: Inhibition of MDR efflux pumps, EtBr accumulation flow cytometry; details: combinations with antibiotics, 3 hrs; FL-2 channel
Description: Assay Protocol: Different combinations of compounds I and II with antibiotics, and antibiotic alone, were made and incubated with bacterial cells for 3 hrs. After incubation cells were stained with ethidium bromide. Both the control and treated cells were centrifuged for 3 mins at 13,000 rpm. The pallet was washed with PBS. Negative control was free from ethidium bromide (EtBr), while positive control contains (EtBr). By using FL2 channel, FACS analyses were carried out. Protocol of Kalle et al. (2009) was employed with some modifications.
Flow cytometry data acquisition: For data acquisition and analysis Cell Quest software (BD) were used. A total number of 50,000 cells were counted. EtBr fluorescence was detected through (FL-2 channel).

[9] = system: EMRSA-16 and -17; assay: Reactive oxygen species (O2-) production, lucigenin CL assay; details: 25, 50 and 100 μg/mL; lucigenin chemiluminescence
Description: Assay Protocol: 5×10^5 Cells were incubated with the different concentrations of compounds (25, 50 and 100. μg/mL), leucigenin and filtered phosphate buffer saline. For the triggering of reaction, DMSO was added to the each well at the time of RLU determination. No test compounds were added in positive control but it contained DMSO, while no test compound and DMSO were added in negative control. Chemiluminescence (CL) was determined at room temperature by luminometer. The light emission results were measured in relative light unit (RLU). Protocol of above discussed protocol was followed by the method of Albesa et al (2002) with slight modifications.

[10] = Staphylococcus aureus, EMRSA-17, substance alone, read-out: MIC
[11] = Staphylococcus aureus, 20 μg/mL, Alamar blue, 20-24 h

With penicillin the “MIC of antibiotic in combination” value [1] was 8 µg/mL and the MIC ([2]; EMRSA-17, substance alone) was 1024 µg/mL.

In the case of `O=C(N[C@H](CO)[C@H](O)c1ccc([N+](=O)[O-])cc1)C(Cl)Cl` [chloramphenicol], the “MIC of antibiotic in combination” value [1] is reported as 16 µg/mL.

For `Cc1onc(-c2ccccc2)c1C(=O)N[C@@H]1C(=O)N2[C@@H]1SC(C)(C)[C@@H]2C(=O)O` [oxacillin], the “MIC of antibiotic in combination” value [1] was 16 µg/mL and the MIC [2, 10] was 2050 µg/mL.

For neomycin, the “MIC of antibiotic in combination” value [1] was 8 µg/mL and the MIC ([2]; EMRSA-17, substance alone) was 512 µg/mL.

With `Cc1cc(NS(=O)(=O)c2ccc(N)cc2)no1` [sulfamethoxazole] the “interaction of antibiotic with compounds (FIC)” value ([2]; EMRSA-17, with both compounds I and II) was “indifference effect” and the MIC [2, 10] was 2080 µg/mL.

gentamicin was tested, and the “MIC of antibiotic in combination” value [1] was 8 µg/mL and the MIC ([2]; EMRSA-17, substance alone) was 1024 µg/mL.

With `CCC[C@@H]1C[C@@H](C(=O)N[C@@H]([C@H]2O[C@H](SC)[C@H](O)[C@@H](O)[C@H]2O)[C@H](C)Cl)N(C)C1` [clindamycin] the “MIC of antibiotic in combination” value [1] was 32 µg/mL and the MIC [2, 10] was 4100 µg/mL.

`O=C(O)c1cn(C2CC2)c2cc(N3CCNCC3)c(F)cc2c1=O` [ciprofloxacin] was tested, and the “MIC of antibiotic in combination” value [1] was 4 µg/mL.

Thiocarbamide [Thiourea] was tested, and the “% Inhibition 20 μg/mL Clinical Isolates” value ([3]; 20 μg/mL, Alamar blue, 20-24 h) was “No Inhibition”, the “activity in MABA (in words)” value [3] was “resistant” and the “activity in MABA (in words)” value ([4]; 20 μg/mL) was “resistant”. The “% Inhibition 20 μg/mL EMRSA-16” value ([4]; Alamar blue, 20-24 h) was “No Inhibition”, the “activity in MABA (in words)” value ([5]; 20 μg/mL) was “resistant” and the “% Inhibition 20 μg/mL EMRSA-17” value ([5]; Alamar blue, 20-24 h) was “No Inhibition”. The “% Inhibition 20 μg/mL MRSA 252” value ([6]; 20 μg/mL, Alamar blue, 20-24 h) was “No Inhibition” and the “activity in MABA (in words)” value [6] was “resistant”.

In the case of `NCC[C@H](O)C(=O)N[C@@H]1C[C@H](N)[C@@H](O[C@H]2O[C@H](CN)[C@@H](O)[C@H](O)[C@H]2O)[C@H](O)[C@H]1O[C@H]1O[C@H](CO)[C@@H](O)[C@H](N)[C@H]1O` [amikacin], the “MIC of antibiotic in combination” value [1] is reported as 4 µg/mL and the MIC ([2]; Staphylococcus aureus) is reported as 256 µg/mL.

In the case of `NC(N)=O` [Urea, Carbamide, carbonyl diamide, carbonyldiamine, Diaminomethanal], the “% Inhibition 20 μg/mL Clinical Isolates” value ([3]; 20 μg/mL, Alamar blue, 20-24 h) is reported as “No Inhibition”, the “activity in MABA (in words)” value [3] is reported as “resistant” and the “activity in MABA (in words)” value ([4]; 20 μg/mL) is reported as “resistant”. For the same compound, the “% Inhibition 20 μg/mL EMRSA-16” value ([4]; Alamar blue, 20-24 h) was “No Inhibition”, the “activity in MABA (in words)” value ([5]; 20 μg/mL) was “resistant” and the “% Inhibition 20 μg/mL EMRSA-17” value ([5]; Alamar blue, 20-24 h) was “No Inhibition”. For the same compound, the “% Inhibition 20 μg/mL MRSA 252” value ([6]; 20 μg/mL, Alamar blue, 20-24 h) was “No Inhibition” and the “activity in MABA (in words)” value [6] was “resistant”.

`COc1cccc(NC(=S)Nc2cccc(Cl)c2)c1` [II, N-(3-Chlorophenyl)-N-(3methoxyphenyl) thiourea] was tested, and the inhibition at 20 µg/mL [3, 11] was 19.6%, the “activity in MABA (in words)” value ([4]; 20 μg/mL) was “active” and the inhibition at 20 µg/mL [4, 11] was 50.1%. The “activity in MABA (in words)” value ([5]; 20 μg/mL) was “active”, the inhibition at 20 µg/mL [5, 11] was 82.6% and the inhibition at 20 µg/mL [6, 11] was 14.8%. For the same compound, the MIC ([1]; Staphylococcus aureus, substance alone) was 52 µg/mL, the MIC [2, 10] was 25 µg/mL and the “effect on membrane potential and integrity” value [7] was “depolarization and the disruption of cytoplasmic membrane”. For the same compound, the “inhibition of efflux pump (EtBr accumulation)” value [8] was “excellent capacity to inhibit the bacterial efflux pump mechanism” and the “production of reactive oxygen species (O2-)” value [9] was “generation of O2^− in MDR cells were detected”.
